Experimental findings from patent publication US20140206681A1, “BTK INHIBITORS” (priority 2013, published 2014) are described below.

For assay [1], the target named is T1, BTK enzyme (recombinant full-length BTK, hBTK) (Homo sapiens, UniProt Q06187).
T1 construct: recombinant protein from baculovirus-transfected Sf9 cells: full-length BTK, 6HIS-tag cleaved; 6HIS (cleaved yes); made in house; host or cells: baculovirus-transfected Sf9 cells
Kind of assay: BTK enzyme activity assay, LANCE TR-FRET. The format is biochemical. Conditions: 50 pM hBTK, 2 μM biotin-A5-peptide, 25 μM ATP; 60 min compound & enzyme incubation; read-out: IC50 BTK activity value.

A further assay concerns HeLa cells. Kind of assay: [3H]Adenosine uptake functional cellular assay. The format is cell-based. As to conditions: Homo sapiens, HeLa, accumulation of [3H]adenosine into HeLa cells; compound range 10 μM to […]; read-out: Adenosine uptake inhibition IC50. A digest of the protocol: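 Inhibition of adenosine uptake was measured in HeLa cells (ATCC CCL-2) by following accumulation of tritiated adenosine. Cells were kept overnight at 37° C. with 5% (v/v) CO2, then switched to 40 μL HBSS plus 5% (v/v) FBS. 20 μL of 500 nM [3H]adenosine was added, and uptake was counted on a Topcount NXT reader.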

Structures are written as SMILES.

T1 sequence (Q06187 whole entry): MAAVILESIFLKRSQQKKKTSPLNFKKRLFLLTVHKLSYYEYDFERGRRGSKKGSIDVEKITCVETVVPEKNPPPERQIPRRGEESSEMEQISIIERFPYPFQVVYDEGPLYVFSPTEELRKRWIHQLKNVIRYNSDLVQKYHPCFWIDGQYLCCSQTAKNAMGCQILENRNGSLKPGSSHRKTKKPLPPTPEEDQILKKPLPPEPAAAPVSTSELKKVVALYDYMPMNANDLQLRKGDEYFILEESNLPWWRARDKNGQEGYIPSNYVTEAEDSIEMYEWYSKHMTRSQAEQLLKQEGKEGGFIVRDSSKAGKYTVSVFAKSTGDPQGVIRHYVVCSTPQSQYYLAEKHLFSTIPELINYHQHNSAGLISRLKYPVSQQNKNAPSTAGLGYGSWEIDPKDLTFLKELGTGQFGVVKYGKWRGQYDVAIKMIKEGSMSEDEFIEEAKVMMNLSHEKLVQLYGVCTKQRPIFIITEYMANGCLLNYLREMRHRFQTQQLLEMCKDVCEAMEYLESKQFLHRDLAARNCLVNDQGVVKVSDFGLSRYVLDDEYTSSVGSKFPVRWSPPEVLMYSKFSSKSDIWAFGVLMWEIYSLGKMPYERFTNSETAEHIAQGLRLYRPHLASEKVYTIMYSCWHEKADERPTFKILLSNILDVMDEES

On to `CC(C)Oc1cc(C(=O)Nc2cc(C(F)(F)F)ccn2)ccc1-c1nc([C@@H]2CC[C@H]3CCC(=O)N3C2)n2ccnc(N)c12` [Example 139, 4-{8-amino-3-[(6R,8aS)-3-oxooctahydroindolizin-6-yl]imidazo[1,5-a]pyrazin-1-yl}-3-(1-methylethoxy)-N-[4-(trifluoromethyl)pyridin-2-yl]benzamide], for which the IC50 is 5.7 nM in assay [1] and 1280 nM with HeLa cells.
On to `Nc1nccn2c([C@@H]3CC[C@H]4CCC(=O)N4C3)nc(-c3ccc(C(=O)Nc4cc(C(F)(F)F)ccn4)cc3OC3CCC3)c12` [Example 140, 4-{8-amino-3-[(6R,8aS)-3-oxooctahydroindolizin-6-yl]imidazo[1,5-a]pyrazin-1-yl}-3-(cyclobutyloxy)-N-[4-(trifluoromethyl)pyridin-2-yl]benzamide], for which the IC50 amounted to 4.6 nM in assay [1] and 756 nM in the assay on HeLa cells.
As to `Nc1nccn2c([C@@H]3CC[C@H]4CCC(=O)N4C3)nc(-c3ccc(C(=O)Nc4cc(C(F)(F)F)ccn4)cc3OC3CCCC3)c12` [Example 141, 4-{8-amino-3-[(6R,8aS)-3-oxooctahydroindolizin-6-yl]imidazo[1,5-a]pyrazin-1-yl}-3-(cyclopentyloxy)-N-[4-(trifluoromethyl)pyridin-2-yl]benzamide], the 50% inhibitory concentration (IC50) in assay [1] is 23.7 nM; in the assay on HeLa cells, 824 nM.
As to `CC(C)(C)COc1cc(C(=O)Nc2cc(C(F)(F)F)ccn2)ccc1-c1nc([C@@H]2CC[C@H]3CCC(=O)N3C2)n2ccnc(N)c12` [Example 142, 4-{8-amino-3-[(6R,8aS)-3-oxooctahydroindolizin-6-yl]imidazo[1,5-a]pyrazin-1-yl}-3-(2,2-dimethylpropoxy)-N-[4-(trifluoromethyl)pyridin-2-yl]benzamide], the IC50 was 17.5 nM in assay [1] and 1190 nM in the assay on HeLa cells.
Regarding `Cn1nc(NC(=O)c2ccc(-c3nc([C@@H]4CC[C@H]5CCC(=O)N5C4)n4c(Cl)cnc(N)c34)c(OC3CC3)c2)cc1C(F)(F)F` [Example 145, 4-{8-amino-5-chloro-3-[(6R,8aS)-3-oxooctahydroindolizin-6-yl]imidazo[1,5-a]pyrazin-1-yl}-3-(cyclopropyloxy)-N-[1-methyl-5-(trifluoromethyl)-1H-pyrazol-3-yl]benzamide], the concentration for half-maximal inhibition (IC50) was determined as 0.44 nM in assay [1] and 2420 nM in the assay on HeLa cells.
As for `Cn1nc(NC(=O)c2ccc(-c3nc([C@@H]4CC[C@H]5CCC(=O)N5C4)n4ccnc(N)c34)c(OC3CC3)c2)cc1C(F)(F)F` [Example 146, 4-{8-amino-3-[(6R,8aS)-3-oxooctahydroindolizin-6-yl]imidazo[1,5-a]pyrazin-1-yl}-3-(cyclopropyloxy)-N-[1-methyl-5-(trifluoromethyl)-1H-pyrazol-3-yl]benzamide], the values for the IC50 (in assay [1]; with HeLa cells) were 0.59 nM and 5000 nM, respectively.
In the same order, the values of `Nc1ncc(Cl)n2c([C@@H]3CC[C@H]4CCC(=O)N4C3)nc(-c3ccc(C(=O)Nc4cc(C5CC5)ccn4)cc3OC3CC3)c12` [Example 147, 4-{8-amino-5-chloro-3-[(6R,8aS)-3-oxooctahydroindolizin-6-yl]imidazo[1,5-a]pyrazin-1-yl}-3-(cyclopropyloxy)-N-(4-cyclopropylpyridin-2-yl)benzamide] are 0.75 nM and 959 nM.
For `Nc1nccn2c([C@@H]3CC[C@H]4CCC(=O)N4C3)nc(-c3ccc(C(=O)Nc4cc(C5CC5)ccn4)cc3OC3CC3)c12` [Example 148, 4-{8-amino-3-[(6R,8aS)-3-oxooctahydroindolizin-6-yl]imidazo[1,5-a]pyrazin-1-yl}-3-(cyclopropyloxy)-N-(4-cyclopropylpyridin-2-yl)benzamide], the IC50 in assay [1] was 1.4 nM; in the assay on HeLa cells, 1080 nM.
On to `Cn1nc(NC(=O)c2ccc(-c3nc([C@@H]4CC[C@H]5CCC(=O)N5C4)n4ccnc(N)c34)c(OC3CNC3)c2)cc1C(F)(F)F` [Example 149, 4-{8-amino-3-[(6R,8aS)-3-oxooctahydroindolizin-6-yl]imidazo[1,5-a]pyrazin-1-yl}-3-(azetidin-3-yloxy)-N-[1-methyl-5-(trifluoromethyl)-1H-pyrazol-3-yl]benzamide], for which the IC50 is 96.7 nM in assay [1] and no less than 10000 nM in the assay with HeLa cells.
